Laboratory results reported in patent publication US20260053861A1, “CELL COMPOSITIONS AND METHODS OF USING THE SAME” (THE REGENTS OF THE UNIVERSITY OF CALIFORNIA, priority 2022, published 2026).
Where a name gives a salt, the structure may show the parent alone. Non-standard residues stand in square brackets, D forms with d. Residues, ends and D or L forms follow the SMILES beside them. *: point of attachment. Sta = CC(C)C[C@H](N)[C@@H](O)CC(=O)O; Isovaleryl = CC(C)CC(=O)*

test system: hPSC-SCs; conditions: not given

Compound | z.score.t
CCCCc1ccc2[nH]c(NC(=O)OC)nc2c1 [Parbendazole] | −1.543
C[N+]1(CCCCC[N+]2(C)CCCC2)CCCC1.O=C([O-])C(O)C(O)C(=O)O.O=C([O-])C(O)C(O)C(=O)O [Pentolinium bitartrate] | 0.2038
CC(C)CC(=O)N[C@H](C(=O)N[C@H](C(=O)N[C@@H](CC(C)C)[C@@H](O)CC(=O)N[C@@H](C)C(=O)N[C@@H](CC(C)C)[C@@H](O)CC(=O)O)C(C)C)C(C)C [Pepstatin A] (Isovaleryl-VV[Sta]A[Sta]-OH) | −1.319
CC(COc1ccccc1)N(CCCl)Cc1ccccc1 (centres unmarked) [Phenoxybenzamine hydrochloride] | 0.03421
CC(N)C(O)c1ccccc1 (centres unmarked) [Phenylpropanolamine hydrochloride] | −0.8304
C=C(C)[C@@H]1[C@H]2OC(=O)[C@@H]1[C@]1(O)C[C@H]3O[C@]34C(=O)O[C@H]2[C@]14C [Picrotoxinin] | 1.281
CCN1CCCC(OC(=O)C(c2ccccc2)c2ccccc2)C1 (centres unmarked) [Piperidolate hydrochloride] | −1.025
COc1cc(/C=C/C(=O)N2CCC=CC2=O)cc(OC)c1OC [Piperlongumine] | −2.024
COc1cc([C@@H]2c3cc4c(cc3[C@H](O)[C@H]3COC(=O)[C@H]23)OCO4)cc(OC)c1OC [Podophyllotoxin] | −2.152
C[n+]1ccccc1/C=N/O [Pralidoxime chloride] | −0.411

same assay, conditions: HTS viability of hPSC-SCs in the presence of 30 mM glucose; Prestwick library; Table S4

Compound | z.score.t
COc1ccc(Cc2nccc3cc(OC)c(OC)cc23)cc1OC [Papaverine hydrochloride] | 0.1556
C#CCN(C)Cc1ccccc1 [Pargyline hydrochloride] | 0.7789
NC[C@@H]1O[C@H](O[C@H]2[C@@H](O)[C@H](O[C@@H]3[C@@H](O)[C@H](N)C[C@H](N)[C@H]3O[C@H]3O[C@H](CO)[C@@H](O)[C@H](O)[C@H]3N)O[C@@H]2CO)[C@H](N)[C@@H](O)[C@@H]1O [Paromomycin sulfate] | −1.074
Fc1ccc([C@@H]2CCNC[C@H]2COc2ccc3c(c2)OCO3)cc1 [Paroxetine Hydrochloride] | −1.138
CN1C(C)(C)CCCC1(C)C [Pempidine tartrate] | −0.5583
CC(C)(C)NC[C@H](O)COc1ccccc1C1CCCC1 [Penbutolol sulfate] | −0.9376
N=C(N)c1ccc(OCCCCCOc2ccc(C(=N)N)cc2)cc1 [Pentamidine isethionate] | −0.8129
O=C(O)CN(CCN(CC(=O)O)CC(=O)O)CCN(CC(=O)O)CC(=O)O [Pentetic acid] | −0.3461
CC(=O)CCCCn1c(=O)c2c(ncn2C)n(C)c1=O [Pentoxifylline] | 1.045
C1CCc2nnnn2CC1 [Pentylenetetrazole] | 1.171
CCCN1C[C@H](CSC)C[C@@H]2c3cccc4[nH]cc(c34)C[C@H]21 [Pergolide mesylate] | 0.1298
C1CCC(C(CC2CCCCN2)C2CCCCC2)CC1 (centres unmarked) [Perhexiline maleate] | −1.682
CCC[C@H](N[C@@H](C)C(=O)N1[C@H](C(=O)O)C[C@@H]2CCCC[C@@H]21)C(=O)OCC [Perindopril] | 2.067
OCCN1CCN(CCCN2c3ccccc3Sc3ccc(Cl)cc32)CC1 [Perphenazine] | −1.746
CCOc1ccc(NC(C)=O)cc1 [Phenacetin] | 0.8023
Nc1ccc(/N=N/c2ccccc2)c(N)n1 [Phenazopyridine hydrochloride] | 1.999
NNCCc1ccccc1 [Phenelzine sulfate] | 0.852
CC(Oc1ccccc1)C(=O)N[C@@H]1C(=O)N2[C@@H]1SC(C)(C)[C@@H]2C(=O)O (some centres unmarked) [Phenethicillin potassium salt] | 0.7158
[H]/N=C(/N)N/C(=N/[H])NCCc1ccccc1 [Phenformin hydrochloride] | 0.9109
O=C1c2ccccc2C(=O)C1c1ccccc1 [Phenindione] | 0.7312
CN(C)CCC(c1ccccc1)c1ccccn1 (centres unmarked) [Pheniramine maleate] | −0.09426
CN1C(=O)CC(c2ccccc2)C1=O (centres unmarked) [Phensuximide] | 1.669
Cc1ccc(N(CC2=NCCN2)c2cccc(O)c2)cc1 [Phentolamine hydrochloride] | −0.1241
O=C(O)c1ccccc1C(=O)Nc1ccc(S(=O)(=O)Nc2nccs2)cc1 [Phthalylsulfathiazole] | −1.317

Compound | z.score.t
COc1ccc(C(=O)NCc2cccnc2)cc1C(=O)NCc1cccnc1 [Picotamide monohydrate] | −0.04944
CC[C@@H]1C(=O)OC[C@@H]1Cc1cncn1C [Pilocarpine nitrate] | 1.139
CN1CCC(=C2c3ccccc3Sc3ccccc32)CC1 [Pimethixene maleate] | −1.233
O=c1[nH]c2ccccc2n1C1CCN(CCCC(c2ccc(F)cc2)c2ccc(F)cc2)CC1 [Pimozide] | −1.173
CC(N/C(=N\C#N)Nc1ccncc1)C(C)(C)C (centres unmarked) [Pinacidil] | −0.03449
CC(C)NCC(O)COc1cccc2[nH]ccc12 (centres unmarked) [Pindolol] | 0.2038
CCn1cc(C(=O)O)c(=O)c2cnc(N3CCNCC3)nc21 [Pipemidic acid] | 0.4318
CC[N+]1(C)CCCC(OC(=O)C(O)(c2ccccc2)c2ccccc2)C1 (centres unmarked) [Pipenzolate bromide] | 0.4318
CC(=O)c1ccc2c(c1)N(CCCN1CCC(CCO)CC1)c1ccccc1S2 [Piperacetazine] | −1.148
CCN1CCN(C(=O)N[C@@H](C(=O)N[C@@H]2C(=O)N3[C@@H]2SC(C)(C)[C@@H]3C(=O)O)c2ccccc2)C(=O)C1=O [Piperacillin sodium salt] | 0.8465
O=C(/C=C/C=C/c1ccc2c(c1)OCO2)N1CCCCC1 [Piperine] | −0.1003
NC(=O)CN1CCCC1=O [Piracetam] | 1.595
Cc1nc2ccccn2c(=O)c1CCN1CCC(C(=O)c2ccc(F)cc2)CC1 [Pirenperone] | −0.07901
CN1CCN(CC(=O)N2c3ccccc3C(=O)Nc3cccnc32)CC1 [Pirenzepine dihydrochloride] | −0.07933
NS(=O)(=O)c1cc(C(=O)O)cc(N2CCCC2)c1Oc1ccccc1 [Piretanide] | −0.9376
c1cnc(N2CCN(Cc3ccc4c(c3)OCO4)CC2)nc1 [Piribedil hydrochloride] | −1.291
CCn1cc(C(=O)O)c(=O)c2cnc(N3CCCC3)nc21 [Piromidic acid] | 0.453
CN1C(C(=O)Nc2ccccn2)=C(O)c2ccccc2S1(=O)=O [Piroxicam] | −0.4161
CC(C)(C)C(=O)OCOC(=O)[C@@H]1N2C(=O)[C@@H](NC(=O)[C@H](N)c3ccccc3)[C@H]2SC1(C)C [Pivampicillin] | −0.2187
CC(C)(C)C(=O)OCOC(=O)[C@@H]1N2C(=O)[C@@H](/N=C/N3CCCCCC3)[C@H]2SC1(C)C [Pivmecillinam hydrochloride] | 0.0827
CC(=O)Nc1ccc(OCC(O)CNC(C)C)cc1 (centres unmarked) [Practolol] | −0.3112
CCCCOc1ccc(OCCCN2CCOCC2)cc1 [Pramoxine hydrochloride] | −1.058
O=C(C1CCCCC1)N1CC(=O)N2CCc3ccccc3C2C1 (centres unmarked) [Praziquantel] | −0.5553
COc1cc2nc(N3CCN(C(=O)c4ccco4)CC3)nc(N)c2cc1OC [Prazosin hydrochloride] | −0.496

Compound | z.score.t
CCOC(=O)O[C@]1(C(=O)COC(=O)CC)CC[C@H]2[C@@H]3CCC4=CC(=O)C=C[C@]4(C)[C@H]3[C@@H](O)C[C@@]21C [Prednicarbate] | −0.7266
C[C@]12C=CC(=O)C=C1CC[C@@H]1[C@@H]2[C@@H](O)C[C@@]2(C)[C@H]1CC[C@]2(O)C(=O)CO [Prednisolone] | 1.287
C[C@]12C=CC(=O)C=C1CC[C@@H]1[C@@H]2C(=O)C[C@@]2(C)[C@H]1CC[C@]2(O)C(=O)CO [Prednisone] | −0.6093
CC(=O)[C@H]1CC[C@H]2[C@@H]3CC=C4C[C@@H](O)CC[C@]4(C)[C@H]3CC[C@]12C [Pregnenolone] | −0.6864
CCCNC(C)C(=O)Nc1ccccc1C (centres unmarked) [Prilocaine hydrochloride] | 1.984
COc1cc(NC(C)CCCN)c2ncccc2c1 (centres unmarked) [Primaquine diphosphate] | −1.784
CCC1(c2ccccc2)C(=O)NCNC1=O [Primidone] | 0.2582
CCCC(C(=O)OCCN(CC)CC)(c1ccccc1)c1ccccc1 [Proadifen hydrochloride] | −1.138
CCCN(CCC)S(=O)(=O)c1ccc(C(=O)O)cc1 [Probenecid] | −0.3319
CC(C)(Sc1cc(C(C)(C)C)c(O)c(C(C)(C)C)c1)Sc1cc(C(C)(C)C)c(O)c(C(C)(C)C)c1 [Probucol] | 0.1344
CCN(CC)CCNC(=O)c1ccc(N)cc1 [Procainamide hydrochloride] | −0.2904
CCN(CC)CCOC(=O)c1ccc(N)cc1 [Procaine hydrochloride] | 0.5587
CNNCc1ccc(C(=O)NC(C)C)cc1 [Procarbazine hydrochloride] | −0.01802
CN1CCN(CCCN2c3ccccc3Sc3ccc(Cl)cc32)CC1 [Prochlorperazine dimaleate] | −0.7775
OC(CCN1CCCC1)(c1ccccc1)C1CCCCC1 (centres unmarked) [Procyclidine hydrochloride] | −0.0788
CC(=O)[C@H]1CC[C@H]2[C@@H]3CCC4=CC(=O)CC[C@]4(C)[C@H]3CC[C@]12C [Progesterone] | 0.1767
CCCN(CCC)C(=O)C(CCC(=O)O)NC(=O)c1ccccc1 (centres unmarked) [Proglumide] | −0.8991
[H]/N=C(\N/C(=N/[H])Nc1ccc(Cl)cc1)NC(C)C [Proguanil hydrochloride] | −0.1187
CN(C)CCCN1c2ccccc2Sc2ccccc21 [Promazine hydrochloride] | −1.845
CC(CN1c2ccccc2Sc2ccccc21)N(C)C (centres unmarked) [Promethazine hydrochloride] | 1.578
CC(C)NCC(O)c1ccc2ccccc2c1 (centres unmarked) [Pronethalol hydrochloride] | −0.4684
CCCNCC(O)COc1ccccc1C(=O)CCc1ccccc1 (centres unmarked) [Propafenone hydrochloride] | 1.211
